Experimental data taken from patent US20100003542A1, “Coating of artificial surfaces of medical aids and instruments, and cleaning and/or pretreatment of catheters and other medical aids and instruments” (BAYER SCHERING PHARMA AKTIENGESSELSCHAFT, priority 2006, published 2010).

system: intrinsic blood clotting system; experiment: Determination of the inhibition of contact activation: activated partial thromboplastin time (aPTT) in platelet-poor plasma; design: species or system human; details: concentration of inhibitor causing twofold prolongation of aPTT; platelet-poor citrate plasma from healthy volunteers; 10 min incubation at 37° C.; PTT reagent (kaolin/cephalin)
Excerpt: The contact activation can be measured by means of a global plasma clotting test, the activated partial thromboplastin time (aPTT), which detects the effect on factors of the intrinsic blood clotting system.
The PTT reagent is a mixture of kaolin suspension, that is “silicates”, which mimic the negatively charged foreign surface, and cephalin, that is phospholipids, which are needed as a surface for the conversion of factor XII into factor XIIa. In the presence of a foreign surface, phospholipid and Ca^2+, factor XII is converted to factor XIIa.
This PTT reagent is added to specially prepared plasma (see examples). The clotting is triggered when the necessary calcium^2+ ions are present, i.e. by addition of a calcium dichloride solution. The time between calcium^2+ addition and the onset of clotting is then measured, and the concentration of inhibitor [in μM] which causes a twofold prolongation of the aPTT is stated.
The contact activation is determined by determination of the partial thromboplastin time. The test principle is as follows: the plasma sample is treated with a mixture of the partial thromboplastin cephalin (phospholipid from rabbit brain) and the surface activator kaolin. The contact activation of the intrinsic clotting system up to fibrin formation is thus set in motion.
For the determination of the partial thromboplastin time, blood from healthy volunteers of both sexes, who had not received any medication affecting clotting within the last ten days, was used. The blood is collected in Monovettes (Sarstedt, Nümbrecht) which contain sodium citrate (1 part citrate+9 parts blood) as anticoagulant. To obtain platelet-poor plasma, the citrate (3.8%) whole blood is centrifuged at 2500 g for 10 min at 4° C. and stored at −20° C. For the determination of the clotting time, aliquots of the platelet-poor plasma (0.1 ml) are incubated with increasing concentrations of test substance or the corresponding solvent for 10 mins at 37° C. Next, the clotting time is determined in accordance with the manufacturer's directions (PTT Reagent®, Roche Diagnostics). For this the procedure is as follows: 0.1 ml of PTT reagent is pipetted into the plasma, and the sample incubated for three minutes at 37° C. The clotting is then triggered in a coagulometer by addition of 0.1 ml of calcium chloride solution and the time to onset of clotting is measured. In this manner, the 2-fold prolongation of the aPTT is determined for selected compounds.

`O=C(NC[C@H]1CN(c2ccc(N3CCCC3=O)cc2)C(=O)O1)c1ccc(Cl)s1` [Example 17] and `O=C(NC[C@H]1CN(c2ccc(N3CCCCC3=O)cc2)C(=O)O1)c1ccc(Cl)s1` [Example 162] are within 1.5-fold of each other in “Twofold prolongation of the aPTT” value: 1.8 µM for the first, 2.5 µM for the second.

`O=C(NC[C@H]1CN(c2ccc(N3CCOCC3=O)cc2)C(=O)O1)c1ccc(Cl)s1` [Example 44, 5-chloro-N-({(5S)-2-oxo-3-[4-(3-oxo-4-morpholinyl)phenyl]-1,3-oxazolidin-5-yl}methyl)-2-thiophencarboxamide] and `O=C(NCC1CN(c2ccc(N3CCOCC3=O)c(F)c2)C(=O)O1)c1ccc(Cl)s1` (centres unmarked) [Example 95] are within 1.5-fold of each other in “Twofold prolongation of the aPTT” value: 0.69 µM for the first, 0.51 µM for the second.

Going from `O=C(NC[C@H]1CN(c2ccc(N3CCCC3=O)cc2)C(=O)O1)c1ccc(Br)s1` [Example 56] to `O=C(NCC1CN(c2ccc(N3CCCC3=O)c(C(F)(F)F)c2)C(=O)O1)c1ccc(Cl)s1` (centres unmarked) [Example 112], the “Twofold prolongation of the aPTT” value falls from 4.3 µM to 1.6 µM (2.7-fold).

Going from `O=C(NCC1CN(c2ccc(N3CCOCC3=O)c(Cl)c2)C(=O)O1)c1ccc(Cl)s1` (centres unmarked) [Example 113] to `Cc1cc(N2CC(CNC(=O)c3ccc(Cl)s3)OC2=O)ccc1N1CCOCC1=O` (centres unmarked) [Example 115], the “Twofold prolongation of the aPTT” value rises from 0.55 µM to 1.34 µM (2.4-fold).

First: O=C(NCC1CN(c2ccc(N3CCOCC3=O)c(C(F)(F)F)c2)C(=O)O1)c1ccc(Cl)s1 (centres unmarked) [Example 114]
Second: O=C(NC[C@H]1CN(c2ccc(N3CCOCC3=O)c(F)c2)C(=O)O1)c1ccc(Cl)s1 [Example 130a]
The “Twofold prolongation of the aPTT” value of the first is 5.5-fold higher: 2.2 µM for the first, 0.4 µM for the second.

`Nc1cc(N2CC(CNC(=O)c3ccc(Cl)s3)OC2=O)ccc1N1CCOCC1=O` (centres unmarked) [Example 123] was tested, and the “Twofold prolongation of the aPTT” value was 1.22 µM.
